Results reported in patent US20240141294A1, “CGMP COMPLIANT PRODUCTION AND EXPANSION OF PLASMACYTOID DENDRITIC CELLS FROM HEMATOPOIETIC STEM AND PROGENITOR CELLS” (AARHUS UNIVERSITET, priority 2021, published 2024).

Tested on: HSPC-pDCs
Test: RNA-sequencing of HSPC-pDCs generated with or without ascorbic acid
Type: cell-based, human
Description: HSPCs were thawed and 1×10^5 cells were seeded in DC medium with or without supplementation of ascorbic acid (AA). Following 16 days of differentiation with or without AA in the medium, pDCs were isolated by immunomagnetic depletion of non-pDCs, and HSPCs-pDCs were then primed for 72 hours with IFN-β/γ. Following priming, HSPC-pDCs were stored in RNAprotect Cell Reagent (Qiagen) at −80° C. until total RNA was extracted using the RNeasy Plus Micro Kit (Qiagen), which efficiently eliminates genomic DNA without the need for DNase treatment. The total RNA was send to BGI Europe for RNA-seq. Here, a non-stranded & polyA-selected mRNA library was prepared from the total RNA and subjected to PE100 sequencing using the BGISEQ platform. The samples generated on average about 4.84 Gb bases per sample. Low quality reads were filtered and the remaining reads were mapped to the genome with an average mapping ratio with the reference genome at 92.74%, the average gene mapping ratio at 79.90%. In total, 18,412 genes were identified. Gene expression was calculated based on the reads, differentially expressed genes and gene ontology analyses were analyzed on BGI's software analysis platform Dr. Tom. HSPCs were thawed and 1×10^5 cells were seeded in DC medium with or without supplementation of ascorbic acid (AA). Following 16 days of differentiation with or without AA in the medium, pDCs were isolated by immunomagnetic depletion of non-pDCs, and HSPCs-pDCs were then primed for 72 hours with IFN-β/γ. Following priming, HSPC-pDCs were stored in RNAprotect Cell Reagent (Qiagen) at −80 degrees until total RNA was extracted using the RNeasy Plus Micro Kit (Qiagen), which efficiently eliminates genomic DNA without the need for DNase treatment. The total RNA was send to BGI Europe for RNA-seq. Here, a non-stranded & polyA-selected mRNA library was prepared from the total RNA and subjected to PE100 sequencing using the BGISEQ platform. The samples generated on average about 4.84 Gb bases per sample. Low quality reads were filtered and the remaining reads were mapped to the genome with an average mapping ratio with the reference genome at 92.74%, the average gene mapping ratio at 79.90%. In total, 18,412 genes were identified. Gene expression was calculated based on the reads, differentially expressed genes and gene ontology analyses were analyzed on BGI's software analysis platform Dr. Tom.

[1] = condition with AA, |log 2FC|>=1 and Qvalue <=0.05

Compound: O=C1O[C@H]([C@@H](O)CO)C(O)=C1O [ascorbic acid]
- number of downregulated genes [1]: 334 genes
- number of upregulated genes [1]: 916 genes
- Log2 (+AA/−AA) (gene ADA2, Qvalue 2.90E−08): 0.759
- +AA FPKM (gene ADA2, −AA FPKM 117.7033): 197.7367 FPKM
- Log2 (+AA/−AA) (gene ALOX5AP, Qvalue 0.002016945): 0.793
- +AA FPKM (gene ALOX5AP, −AA FPKM 210): 364 FPKM
- Log2 (+AA/−AA) (gene ANXA2, Qvalue 9.39E−07): 1.658
- +AA FPKM (gene ANXA2, −AA FPKM 106): 333 FPKM
- Log2 (+AA/−AA) (gene APP, Qvalue 0.015253176): 0.696
- +AA FPKM (gene APP, −AA FPKM 133): 215 FPKM
- Log2 (+AA/−AA) (gene BRI3, Qvalue 0.00802755): 0.724
- +AA FPKM (gene BRI3, −AA FPKM 216): 358 FPKM
- Log2 (+AA/−AA) (gene C1QA, Qvalue 0.002254892): 1.342
- +AA FPKM (gene C1QA, −AA FPKM 91): 230 FPKM
- Log2 (+AA/−AA) (gene C1QB, Qvalue 0.011037205): 1.137
- +AA FPKM (gene C1QB, −AA FPKM 147): 323 FPKM
- Log2 (+AA/−AA) (gene C1QC, Qvalue 0.002547556): 1.551
- +AA FPKM (gene C1QC, −AA FPKM 126): 365 FPKM
- Log2 (+AA/−AA) (gene C1orf162, Qvalue 0.038404809): 0.529
- +AA FPKM (gene C1orf162, −AA FPKM 178): 256 FPKM
- Log2 (+AA/−AA) (gene CD68, Qvalue 3.20E−09): 1.365
- +AA FPKM (gene CD68, −AA FPKM 240): 619 FPKM
- Log2 (+AA/−AA) (gene CD74, Qvalue 3.24E−08): 0.841
- +AA FPKM (gene CD74, −AA FPKM 5008): 8923 FPKM
- Log2 (+AA/−AA) (gene CD81, Qvalue 0.002330558): 1.451
- +AA FPKM (gene CD81, −AA FPKM 85): 235 FPKM
- Log2 (+AA/−AA) (gene CHI3L1, Qvalue 0.024834793): 2.178
- +AA FPKM (gene CHI3L1, −AA FPKM 108): 496 FPKM
- Log2 (+AA/−AA) (gene CTSB, Qvalue 6.81E−09): 1.920
- +AA FPKM (gene CTSB, −AA FPKM 96): 363 FPKM
- Log2 (+AA/−AA) (gene CTSD, Qvalue 1.73E−06): 1.460
- +AA FPKM (gene CTSD, −AA FPKM 323): 893 FPKM
- Log2 (+AA/−AA) (gene CTSH, Qvalue 2.00E−04): 1.227
- +AA FPKM (gene CTSH, −AA FPKM 116): 271 FPKM
- Log2 (+AA/−AA) (gene CTSS, Qvalue 1.80E−04): 0.939
- +AA FPKM (gene CTSS, −AA FPKM 126): 242 FPKM
- Log2 (+AA/−AA) (gene CTSZ, Qvalue 3.93E−08): 1.002
- +AA FPKM (gene CTSZ, −AA FPKM 232): 462 FPKM
- Log2 (+AA/−AA) (gene CYBB, Qvalue 0.018453508): 0.807
- +AA FPKM (gene CYBB, −AA FPKM 184): 322 FPKM
- Log2 (+AA/−AA) (gene DEFA1, Qvalue 6.38E−05): 5.728
- +AA FPKM (gene DEFA1, −AA FPKM 20): 1047 FPKM
- Log2 (+AA/−AA) (gene DEFA3, Qvalue 0.001704486): 4.431
- +AA FPKM (gene DEFA3, −AA FPKM 27): 593 FPKM
- Log2 (+AA/−AA) (gene DEFA4, Qvalue 1.65E−08): 4.651
- +AA FPKM (gene DEFA4, −AA FPKM 39): 975 FPKM
- Log2 (+AA/−AA) (gene EVI2B, Qvalue 0.01888367): 0.294
- +AA FPKM (gene EVI2B, −AA FPKM 193): 236 FPKM
- Log2 (+AA/−AA) (gene FCER1G, Qvalue 0.033270138): 0.509
- +AA FPKM (gene FCER1G, −AA FPKM 961): 1367 FPKM
- Log2 (+AA/−AA) (gene FLNA, Qvalue 0.011692048): 0.372
- +AA FPKM (gene FLNA, −AA FPKM 160.4000): 206.4233 FPKM
- Log2 (+AA/−AA) (gene FTH1, Qvalue 0.00845252): 1.289
- +AA FPKM (gene FTH1, −AA FPKM 1395): 3417 FPKM
- Log2 (+AA/−AA) (gene GRINA, Qvalue 0.006989716): 0.718
- +AA FPKM (gene GRINA, −AA FPKM 130): 214 FPKM
- Log2 (+AA/−AA) (gene GRN, Qvalue 0.015829898): 0.695
- +AA FPKM (gene GRN, −AA FPKM 432): 696 FPKM
- Log2 (+AA/−AA) (gene HLA-DMB, Qvalue 0.022417743): 0.717
- +AA FPKM (gene HLA-DMB, −AA FPKM 188): 307 FPKM
- Log2 (+AA/−AA) (gene HLA-DPA1, Qvalue 6.34E−04): 0.763
- +AA FPKM (gene HLA-DPA1, −AA FPKM 1038): 1750 FPKM
- Log2 (+AA/−AA) (gene HLA-DPB1, Qvalue 0.003235049): 0.785
- +AA FPKM (gene HLA-DPB1, −AA FPKM 227): 388 FPKM
- Log2 (+AA/−AA) (gene HLA-DQA1, Qvalue 0.03140587): 1.374
- +AA FPKM (gene HLA-DQA1, −AA FPKM 161): 414 FPKM
- Log2 (+AA/−AA) (gene HLA-DRB1, Qvalue 1.76E−04): 1.122
- +AA FPKM (gene HLA-DRB1, −AA FPKM 1106): 2401 FPKM
- Log2 (+AA/−AA) (gene HLA-DRB3, Qvalue 0.018823029): 1.224
- +AA FPKM (gene HLA-DRB3, −AA FPKM 159): 365 FPKM
- Log2 (+AA/−AA) (gene IFI27, Qvalue 3.56E−04): 4.638
- +AA FPKM (gene IFI27, −AA FPKM 15): 377 FPKM
- Log2 (+AA/−AA) (gene IFITM3, Qvalue 6.61E−06): 1.496
- +AA FPKM (gene IFITM3, −AA FPKM 494): 1383 FPKM
- Log2 (+AA/−AA) (gene IL2RG, Qvalue 0.001778062): 0.785
- +AA FPKM (gene IL2RG, −AA FPKM 122): 209 FPKM
- Log2 (+AA/−AA) (gene ITGB2, Qvalue 9.28E−04): 0.599
- +AA FPKM (gene ITGB2, −AA FPKM 433): 654 FPKM
- Log2 (+AA/−AA) (gene LGALS3, Qvalue 5.07E−04): 1.667
- +AA FPKM (gene LGALS3, −AA FPKM 62.3833): 199.3967 FPKM
- Log2 (+AA/−AA) (gene LGALS3BP, Qvalue 5.08E−05): 1.001
- +AA FPKM (gene LGALS3BP, −AA FPKM 155): 310 FPKM
- Log2 (+AA/−AA) (gene MX1, Qvalue 0.026353098): 2.341
- +AA FPKM (gene MX1, −AA FPKM 42): 212 FPKM
- Log2 (+AA/−AA) (gene NCF1, Qvalue 0.015338721): 0.659
- +AA FPKM (gene NCF1, −AA FPKM 131): 207 FPKM
- Log2 (+AA/−AA) (gene PRDX1, Qvalue 0.009710824): 1.094
- +AA FPKM (gene PRDX1, −AA FPKM 106): 227 FPKM
- Log2 (+AA/−AA) (gene PSAP, Qvalue 7.31E−04): 0.802
- +AA FPKM (gene PSAP, −AA FPKM 600): 1044 FPKM
- Log2 (+AA/−AA) (gene RETN, Qvalue 0.035172121): 0.766
- +AA FPKM (gene RETN, −AA FPKM 244): 414 FPKM
- Log2 (+AA/−AA) (gene S100A11, Qvalue 0.024890893): 0.525
- +AA FPKM (gene S100A11, −AA FPKM 732): 1054 FPKM
- Log2 (+AA/−AA) (gene SERPING1, Qvalue 2.30E−05): 1.387
- +AA FPKM (gene SERPING1, −AA FPKM 181): 471 FPKM
- Log2 (+AA/−AA) (gene SOD2, Qvalue 0.017321675): 1.145
- +AA FPKM (gene SOD2, −AA FPKM 129): 301 FPKM
- Log2 (+AA/−AA) (gene TYMP, Qvalue 0.016368204): 0.679
- +AA FPKM (gene TYMP, −AA FPKM 348): 553 FPKM
- number of TLR7 and TLR9 pathway genes statistically significantly expressed (of 54 selected genes, AA in media during HSPC-pDC generation): 17 genes
